Reference: patent publication US20170037425A1, “METHOD FOR IMPROVING PLANT TRAIT” (SHANGHAI INSTITUTES FOR BIOLOGICAL SCIENCES, CHINESE …, priority 2012, published 2017)
“Also recorded” adds a separate entry of the source.

Experiments:
Brassica [1] = test: Net photosynthetic rate of transgenic Brassica; type: in vivo, Brassica napus L.; details: for net photosynthetic rate, increase compared with wild type: transgenic Brassica
Protocol: (§1) Gas exchange was measured using photosynthetic infrared gas analysis system (LI-6400, Li-Cor Inc, Lincoln, Nebr., USA). The net photosynthetic rate (Pn) and stomatal conductance (Gs) was measured. Sunlight and artificial light were used as artificial light sources for measurement. The ambient CO2 during the measurements was controlled at 400 μmol mol^−1. The ambient temperature was controlled at the temperature for plant growth. Six leaves were measured for each line of plant. In addition, for the CO2 response curve of the plant leaf, the light intensity was set at PPFD of 1500 μmol m^−2s^−1 with artificial light source. The Pn under 50-1200 ppm CO2 was measured.

Brassica [2] = test: Chlorophyll fluorescence and P700 oxidation-reduction in transgenic Brassica; type: in vivo, Brassica napus L.
Protocol: Electron transfer efficiency of leaves was measured by chlorophyll fluorescence. The change of chlorophyll fluorescence parameter was monitored with PAM-2000 fluorometer (Walz, Effeltrich, Germany). Electron transfer efficiency of leaves in response to light was measured after 30-min-dark adaption, Fo represents minimum PSII fluorescence after measuring light is turned on. Fm represents maximum PSII fluorescence after a saturating pulse of white light is turned on. The photochemical efficiency of PSII was calculated with the equation: ΦPSII=(Fm′−Fs)/Fm′ (Genty, B., Briantais, J. M., Baker, N. R. (1989). The relationship between the quantum yield of photosynthetic electron transport and quenching of Chl fluorescence. Biochimica et Biophysica Acta, 990, 87-92). The excitation pressure of chlorophyll was calculated with the equation: 1−qL=1−(Fm′−Fs)/(Fm′−Fo)×Fo′/Fs (Kramer, D. M., Johnson, G., Kiirats, O., Edwards, G. E. (2004) New fluorescence parameters for the determination of Q(A) redox state and excitation energy fluxes. Photosynthesis Research, 79, 209-218).
PAM chlorophyll fluorometer with ED-P700 DW-E light absorb unit was used to measure the change of the light absorb at 810-830 nm, then the change of oxidation-reduction state of P700 was obtained. […]

Brassica [3] = test: Millisecond-delayed light emission in transgenic Brassica leaves; type: in vivo, Brassica napus L.; details: white light and green light
Protocol: Measurements of millisecond-delayed light emission were carried out according to the method described in Chen et al., 2010 (Reversible association of ribulose-1,5-bisphosphate carboxylase/oxygenase activate with the thylakoid membrane depends upon the ATP level and pH in rice without heat stress. Journal of Experimental Botany 61: 2939-2950). Leaf samples with same size were treated in dark for same time and millisecond-delayed light emission was measured in situ. The leaf sample was illuminated with light passing through holes arranged on two rotating wheels, so that the measurement can be partitioned into consecutive cycles of 1 ms excitation by light followed by 4.6 ms darkness. The delayed light emission between 2.8 and 3.8 ms after every flash was recorded. The white light source was supplied by a halogen lamp, and the green light source was obtained by passing the white light source through a 530 nm filter.

[4] = test system: Atp B, D1, Psa D, Lhcb1, Lhca1 and cyt f; test: Western blot of photosynthesis related proteins in transgenic Brassica leaves; type: in vivo, Brassica napus L.
Brassica [5] = test: Chlorophyll and pigment contents of transgenic Brassica leaves; type: in vivo, Brassica napus L.
Protocol: Chlorophylls and pigments were extracted from Brassica leaves with 80% acetone. Chlorophyll contents were measured as described by Arnon D J 1949, Plant Physiol 24:1-15. Carotenoid contents were measured as described by Niyogi et al., (1997), Proc. Natl. Acad. Sci. U.S.A. 94, 14162-14167.

Brassica [6] = test: Stomatal conductance and intercellular CO2 concentration of transgenic Brassica; type: in vivo, Brassica napus L.
Protocol: as §1, with “plant.” for “plant. In addition, for the CO2 response curve of the plant leaf, the light intensity was set at PPFD of 1500 μmol m^−2s^−1 with artificial light source. The Pn under 50-1200 ppm CO2 was measured.”

[7] = test system: etiolated Brassica hypocotyls; test: Respiration rate and oxygen evolution in etiolated hypocotyls of transgenic Brassica; type: in vivo, Brassica napus L.; details: etiolated hypocotyl
Protocol: 5-6 individual hypocotyls (5-6 cm in length) were collected from 1-week-old etiolated Brassica. The roots and cotyledons were detached and the hypocotyls were cut into 1 mm in length after weighing. The hypocotyls were put into the reaction vessel of the Clack-type oxygen electrode. The changes of dissolved oxygen content in solution over measuring time were recorded in dark or under light, respectively. Then 15 mM HgCl2 was added to block the respiration, and the change of dissolved oxygen content in solution was recorded. The difference between the respiration rate under light and in dark, and the oxygen evolution rate when respiration was blocked by HgCl2 was calculated.

wheat = test: Phenotype of transgenic wheat; type: in vivo
Protocol: Wheat transformation was performed with method described in Supartana P, Shimizu T, Nogawa M, Shioiri H, Nakajima T, Haramoto N, Nozue M, and Kojima M. Development of simple and efficient in Planta transformation method for wheat (Triticum aestivum L.) Using Agrobacterium tumefaciens, Journal of Bioscience and Bioengineering 102, 162-170.

rice = test: Phenotype of transgenic rice; type: in vivo
Protocol: Rice transformation was performed with method described in Liu Qiaoquan, Zhang Jingliu, Wang Zongyang, Hong Mengming and Gu Minghong (1998). A highly efficient transformation system mediated by Argrobacteriun tumefaciens in rice (Oryza sativa L.). Acta Phytophysiologica Sinica 24, 259-271.

mCherry: red fluorescent protein, amino acid sequence SEQ ID NO: 2
net photosynthesis rate vs WT (Brassica [1]; phytotron-grown transgenic Brassica, white light and green light): significantly increased
net photosynthesis rate vs WT and empty vector (Brassica [1]; transgenic Brassica in natural field conditions, different light intensities): significantly increased
net photosynthetic rate, increase compared with wild type (Brassica [1]; 400 μmol m^−2s^−1): 31%
net photosynthetic rate, increase compared with wild type (Brassica [1]; 800 μmol m^−2s^−1): 28%
net photosynthetic rate, increase compared with wild type (Brassica [1]; 1200 μmol m^−2s^−1): 16%
initial rate of P700^+ reduction (PSI cyclic electron transport) vs WT (Brassica [2]; transgenic Brassica leaves): much higher
photochemical efficiency of PSII (ΦPSII) (Brassica [2]; transgenic Brassica transferred from red+blue light to white light): increased
slow phase of millisecond delay light evolution (ms-DLE) vs WT (Brassica [3]): higher
expression of photosynthesis related proteins vs WT ([4]; transgenic Brassica grown under red+blue light): no significant difference
expression of photosynthesis related proteins vs WT ([4]; transgenic Brassica grown under white light): significantly increased
accessory photosynthetic pigments (carotenoids) content (Brassica [5]): increased
chlorophyll content and ratio of Chl a/b (Brassica [5]): did not change
stomatal conductance (Gs) vs WT (Brassica [6]; transgenic Brassica): increased
intercellular CO2 concentration (Ci) (Brassica [6]; transgenic Brassica leaves): did not lead to the decrease
net O2 evolution ([7]; O2 uptake inhibited by HgCl2, under light): observed significantly
O2 uptake rate under light vs WT ([7]; without HgCl2): significant lower
seed size and grain yield per plant vs WT (wheat): increase
seed size and panicle size vs WT (wheat): significantly increased
plant growth vs WT (rice): grow better than WT; also recorded: improve the growth
seed size and grain yield per plant vs WT (rice): increase
